Laboratory results taken from patent US20140296146A1, “Thermostable Inhibitors of Activation of the Blood Clotting System Through Contact with Foreign Surfaces” (Synapse B.V., priority 2011, published 2014).
Blank lines part the entries; values can stand above or below the molecule they belong to.

Assays:
[1] = TICA1 Ala-scan with intact disulfides, activity vs TICA1; settings: single amino acid substituted by alanine
Source text: Every single amino acid was substituted by alanine except for cysteine. […] See also FIG. 6.

h-FXIIa = target: T1, h-FXIIa (human, UniProt P00748 20-615); test: S2302 hydrolysis by h-FXIIa (5.01 nM); inhibitor 30 min 95° C., against -80° C.
T1 construct: also called factor XIIa
T1 sequence (looked up): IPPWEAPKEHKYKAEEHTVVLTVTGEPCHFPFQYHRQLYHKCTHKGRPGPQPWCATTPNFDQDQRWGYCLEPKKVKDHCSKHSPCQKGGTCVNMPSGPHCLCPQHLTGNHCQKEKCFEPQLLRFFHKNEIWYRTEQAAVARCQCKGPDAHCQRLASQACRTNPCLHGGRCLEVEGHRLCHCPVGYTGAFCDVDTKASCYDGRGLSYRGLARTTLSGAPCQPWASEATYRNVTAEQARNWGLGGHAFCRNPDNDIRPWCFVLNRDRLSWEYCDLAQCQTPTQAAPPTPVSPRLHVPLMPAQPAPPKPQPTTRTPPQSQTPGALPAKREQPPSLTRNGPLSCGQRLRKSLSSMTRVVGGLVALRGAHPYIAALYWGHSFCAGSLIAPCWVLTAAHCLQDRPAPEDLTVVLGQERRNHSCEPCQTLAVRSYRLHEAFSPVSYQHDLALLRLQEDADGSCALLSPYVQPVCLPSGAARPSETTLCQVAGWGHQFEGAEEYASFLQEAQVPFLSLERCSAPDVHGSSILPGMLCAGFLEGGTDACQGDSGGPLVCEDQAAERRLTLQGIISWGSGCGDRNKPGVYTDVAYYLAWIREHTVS
Description: Stock FXIIa was diluted 700× in BSA5. The inhibitor was diluted in BSA5 as indicated. Wells contained 70 μl diluted FXIIa (5 nM final), 70 μl inhibitor and 20 μl S2302 (475 or 462.5 μM final). The reaction was started after 5 min heating on the heating plate with S2302. Filters 405 nm and 490 nm reference. Found ΔmA/min was multiplied by 2.14 to get the figure for a 1 cm path.

Molecule: CC[C@H](C)[C@@H]1NC(=O)[C@H](CCCNC(=N)N)NC(=O)[C@@H]2CCCN2C(=O)[C@@H](NC(=O)[C@@H](NC(=O)[C@@H](N)CCCNC(=N)N)C(C)C)CSSC[C@@H]2NC(=O)[C@H](CCC(=O)O)NC(=O)[C@H](C)NC(=O)[C@H](CC(C)C)NC(=O)[C@@H]3CSSC[C@@H](C(=O)NCC(=O)O)NC(=O)[C@H](Cc4ccc(O)cc4)NC(=O)CNC(=O)[C@H](Cc4c[nH]cn4)NC(=O)[C@H](CCC(=O)O)NC(=O)[C@H](CC(C)C)NC(=O)[C@H](CSSC[C@H](NC(=O)[C@H](CCCCN)NC(=O)[C@H](CCSC)NC(=O)[C@H](CC(C)C)NC1=O)C(=O)N[C@@H](CCCCN)C(=O)N[C@@H](CCCCN)C(=O)N[C@@H](CC(=O)O)C(=O)N[C@@H](CO)C(=O)N[C@@H](CC(=O)O)C(=O)N3)NC(=O)[C@H](C(C)C)NC2=O [TICA1]
Activity vs TICA1 [1]: 100%

Res. Act. (%) (h-FXIIa): 70%
B1: Corn trypsin inhibitor (other, UniProt P01088 29-138, looked up)
chain: SAGTSCVPGWAIPHNPLPSCRWYVTSRTCGIGPRLPWPELKRRCCRELADIPAYCRCTALSILMDGAIPPGPDAQLEGRLEDLPGCPREVQRGFAATLVTEAECNLATIS
notes: also called CTI
